Source: patent US20210355104A1, “ADENOSINE RECEPTOR BINDING COMPOUNDS” (Nikang Therapeuticsm Inc., priority 2018, published 2021)
“And” between values parts separate entries of the source, which are not always exact repeats. Identical values can stand only once.

How the values were obtained:
Adenosine A2A receptor [1] = target: T1, Adenosine A2A receptor (Homo sapiens, UniProt P29274); test: cAMP assay in 293A cells stably expressing the adenosine A2A receptor (CGS21680 stimulation, HTRF); type: cell-based; parameters: expressed in transfected cells; host or cells: 293A cells (Invitrogen, Cat# R705-07) infected with A2A-expressing lentivirus (custom packaged by Biosettia), puromycin selected; conditions: 293A-A2AR cells, 0.1% BSA
Adenosine A2A receptor [2] = target: T1, Adenosine A2A receptor; test: Adenosine A2A receptor competitive binding assay (Tag-lite HTRF); conditions: Tag-lite adenosine A2A receptor ligand binding
Procedure, shortened: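 Tag-lite HTRF competition: donor-labelled cells expressing human A2A were mixed with serially diluted compounds (DMSO 0.6% in dilutions) and red fluorescent A2A antagonist ligand (60 nM stock). Incubated 2 h at room temperature before HTRF readout.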

[3] = 8 nM CGS, read-out: cAMP (nM) 0.1% BSA, 8 nM CGS
[4] = 1 uM CGS, read-out: cAMP (nM) 0.1% BSA, 1 uM CGS
[5] = 8 nM CGS, values separated by / are repeat determinations, read-out: cAMP (nM) 0.1% BSA, 8 nM CGS
[6] = 2 h room temperature, values separated by / are repeat determinations
[7] = 1 uM CGS, values separated by / are repeat determinations, read-out: cAMP (nM) 0.1% BSA, 1 uM CGS

T1 sequence (P29274 whole entry): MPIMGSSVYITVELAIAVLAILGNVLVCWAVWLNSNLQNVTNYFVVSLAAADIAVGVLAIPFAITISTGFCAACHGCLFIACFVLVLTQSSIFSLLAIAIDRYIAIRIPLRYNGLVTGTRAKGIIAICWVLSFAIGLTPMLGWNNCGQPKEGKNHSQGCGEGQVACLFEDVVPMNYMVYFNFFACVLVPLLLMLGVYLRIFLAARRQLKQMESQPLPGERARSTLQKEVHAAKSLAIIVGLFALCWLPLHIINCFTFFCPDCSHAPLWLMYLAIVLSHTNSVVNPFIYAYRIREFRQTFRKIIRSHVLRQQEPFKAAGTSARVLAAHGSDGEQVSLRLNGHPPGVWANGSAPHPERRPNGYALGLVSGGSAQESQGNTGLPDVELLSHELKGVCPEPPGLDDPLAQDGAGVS

Row | Compound | IC50 (Adenosine A2A receptor [1]; [3]) | IC50 (Adenosine A2A receptor [1]; [4]) | IC50 (Adenosine A2A receptor [2]; HTRF) | IC50 (Adenosine A2A receptor [1]; [5]) | IC50 (Adenosine A2A receptor [2]; [6]) | IC50 (Adenosine A2A receptor [1]; [7])
1 | Cc1cc(-c2c(OCCOc3cccc(N(C)CCO)n3)nc(N)nc2-c2ccc(F)cc2)cc(C(F)F)n1 [Example 213, 2-((6-(2-((2-amino-5-(2-(difluoromethyl)-6-methylpyridin-4-yl)-6-(4-fluorophenyl)pyrimidin-4-yl)oxy)ethoxy)pyridin-2-yl)(methyl)amino)ethan-1-ol] | 3.4 nM | 7.16 nM | 9.3 nM |  |  | 
2 | CCNC(=O)NCCOc1nc(N)nc(-c2ccc(F)cc2)c1-c1cc(C)nc(C(F)F)c1 [Example 60, 1-(2-((2-amino-5-(2-(difluoromethyl)-6-methylpyridin-4-yl)-6-(4-fluorophenyl)pyrimidin-4-yl)oxy)ethyl)-3-ethylurea] |  |  |  | 1.7 nM and 2.2 nM | 3.6 nM and 8.8 nM | 
3 | CCn1ccnc1COc1nc(N)nc(-c2ccc(F)cc2)c1-c1cc(C)nc(C(F)F)c1 [Example 105, 5-(2-(difluoromethyl)-6-methylpyridin-4-yl)-4-((1-ethyl-1H-imidazol-2-yl)methoxy)-6-(4-fluorophenyl)pyrimidin-2-amine] |  |  |  | 0.44 nM and 0.38 nM | 0.17 nM and 1 nM | 10 nM
4 | Cc1cc(-c2c(OCC3COCCO3)nc(N)nc2-c2ccc(F)cc2)cc(C(F)F)n1 (centres unmarked) [Example 114] |  |  |  | 6.2 nM and 4.2 nM | 7.7 nM | 
5 | Cc1cc(-c2c(OCc3nccn3C3CC3)nc(N)nc2-c2ccc(F)cc2)cc(C(F)F)n1 [Example 170, 4-((1-cyclopropyl-1H-imidazol-2-yl)methoxy)-5-(2-(difluoromethyl)-6-methylpyridin-4-yl)-6-(4-fluorophenyl)pyrimidin-2-amine] |  |  |  | 1.1 nM and 1.6 nM | 1.1 nM (2×) and 2.9 nM | 33 nM
6 | Cc1cc(-c2c(OCCCN3CCN(c4ccc(F)cc4F)CC3)nc(N)nc2-c2ccccc2)cc(C(F)(F)F)n1 [Example 6, 4-(3-(4-(2,4-difluorophenyl)piperazin-1-yl)propoxy)-5-(2-methyl-6-(trifluoromethyl)pyridin-4-yl)-6-phenylpyrimidin-2-amine] |  |  |  | 183 nM | 74.3 nM | 
7 | Cc1cc(-c2c(OCC(=O)N(CCO)CCO)nc(N)nc2-c2ccc(F)cc2)cc(C(F)F)n1 [Example 88] |  |  |  | 8.3 nM | 22 nM | 4260 nM
8 | COCCOc1nc(N)nc(-c2ccc(F)cc2)c1-c1cc(C)nc(C(F)F)c1 [Example 48, 5-(2-(difluoromethyl)-6-methylpyridin-4-yl)-4-(4-fluorophenyl)-6-(2-methoxyethoxy)pyrimidin-2-amine] |  |  |  | 0.72 nM and 0.18 nM | 3.7 nM | 
9 | Cc1cc(-c2c(OCc3ncc(S(C)(=O)=O)n3C(C)C)nc(N)nc2-c2ccc(F)cc2)cc(C(F)F)n1 [Example 192, 5-(2-(difluoromethyl)-6-methylpyridin-4-yl)-4-(4-fluorophenyl)-6-((1-isopropyl-5-(methylsulfonyl)-1H-imidazol-2-yl)methoxy)pyrimidin-2-amine] |  |  |  | 9.7 nM | 26 nM | 
10 | CCN(CC)C(=O)COc1nc(N)nc(-c2ccccc2)c1-c1cc(C)nc(C(F)F)c1 [Example 15, 2-((2-amino-5-(2-(difluoromethyl)-6-methylpyridin-4-yl)-6-phenylpyrimidin-4-yl)oxy)-N,N-diethylacetamide] |  |  |  | 0.5 nM and 2.1 nM | 3.2 nM | 
11 | COC(=O)NCc1nc(N)nc(-c2ccc(F)cc2)c1-c1cc(C)nc(C(F)F)c1 [Example 103, methyl((2-amino-5-(2-(difluoromethyl)-6-methylpyridin-4-yl)-6-(4-fluorophenyl)pyrimidin-4-yl)methyl)carbamate] |  |  |  | 11 nM | 47 nM | 
12 | CCN(CCOc1nc(N)nc(-c2ccc(F)cc2)c1-c1cc(C)nc(C(F)F)c1)C(=O)NC [Example 124, 1-(2-((2-amino-5-(2-(difluoromethyl)-6-methylpyridin-4-yl)-6-(4-fluorophenyl)pyrimidin-4-yl)oxy)ethyl)-1-ethyl-3-methylurea] |  |  |  | 1.1 nM and 0.5 nM | 1.7 nM | 535 nM
13 | CCn1nnnc1COc1nc(N)nc(-c2ccc(F)cc2)c1-c1cc(C)nc(C(F)F)c1 [Example 295, 5-(2-(difluoromethyl)-6-methylpyridin-4-yl)-4-((1-ethyl-1H-tetrazol-5-yl)methoxy)-6-(4-fluorophenyl)pyrimidin-2-amine] |  | 175 nM and 69 nM and 201 nM | 7.4 nM |  |  | 
14 | Cc1cc(-c2c(OCCN(CCO)c3ccccn3)nc(N)nc2-c2ccc(F)cc2)cc(C(F)F)n1 [Example 153, 2-((2-((2-amino-5-(2-(difluoromethyl)-6-methylpyridin-4-yl)-6-(4-fluorophenyl)pyrimidin-4-yl)oxy)ethyl)(pyridin-2-yl)amino)ethan-1-ol] |  |  |  | 4.1 nM | 8.9 nM | 
15 | CCNCCOc1nc(N)nc(-c2ccc(F)cc2)c1-c1cc(C)nc(C(F)F)c1 [Example 65, 5-(2-(difluoromethyl)-6-methylpyridin-4-yl)-4-(2-(ethylamino)ethoxy)-6-(4-fluorophenyl)pyrimidin-2-amine] |  |  |  | 1.6 nM | 42 nM | 1010 nM
16 | Cc1cc(-c2c(OCC(=O)NC(C)C)nc(N)nc2-c2ccc(F)cc2)cc(C(F)F)n1 [Example 41, 2-((2-amino-5-(2-(difluoromethyl)-6-methylpyridin-4-yl)-6-(4-fluorophenyl)pyrimidin-4-yl)oxy)-N-isopropylacetamide] |  |  |  | 4.1 nM | 6.7 nM | 
17 | Cc1cc(-c2c(OCC(=O)NCC(C)(F)F)nc(N)nc2-c2ccc(F)cc2)cc(C(F)F)n1 [Example 162, 2-((2-amino-5-(2-(difluoromethyl)-6-methylpyridin-4-yl)-6-(4-fluorophenyl)pyrimidin-4-yl)oxy)-N-(2,2-difluoropropyl)acetamide] |  |  |  | 8.4 nM | 21.1 nM | 
18 | Cc1cc(-c2c(OCCCN3CCOCC3)nc(N)nc2-c2ccc(F)cc2)cc(C(F)F)n1 [Example 80, 5-(2-(difluoromethyl)-6-methylpyridin-4-yl)-4-(4-fluorophenyl)-6-(3-morpholinopropoxy)pyrimidin-2-amine] |  |  |  | 6.4 nM | 42 nM | 
19 | CNC(=O)COc1nc(N)nc(-c2ccccc2)c1-c1cc(C)nc(C(F)(F)F)c1 [Example 1, 2-((2-amino-5-(2-methyl-6-(trifluoromethyl)pyridin-4-yl)-6-phenylpyrimidin-4-yl)oxy)-N-methylacetamide] |  |  |  | 40 nM and 17 nM | 11.1 nM | 4040 nM
20 | Cc1cc(-c2c(OC[C@H](O)CO)nc(N)nc2-c2ccc(F)cc2)cc(C(F)F)n1 [Example 86, (R)-3-((2-amino-5-(2-(difluoromethyl)-6-methylpyridin-4-yl)-6-(4-fluorophenyl)pyrimidin-4-yl)oxy)propane-1,2-diol] |  |  |  | 2 nM and 9.1 nM and 10.5 nM | 13 nM | 1070 nM
21 | Cc1cc(-c2c(OCC(=O)N3CCOCC3)nc(N)nc2-c2ccccc2)cc(C(F)(F)F)n1 [Example 10, 2-((2-amino-5-(2-methyl-6-(trifluoromethyl)pyridin-4-yl)-6-phenylpyrimidin-4-yl)oxy)-1-morpholinoethan-1-one] |  |  |  | 8.8 nM and 51.5 nM and 24.2 nM | 25.2 nM | 
22 | Cc1cc(-c2c(OCCN(C)c3cccnn3)nc(N)nc2-c2ccc(F)cc2)cc(C(F)F)n1 [Example 150, N-(2-((2-amino-5-(2-(difluoromethyl)-6-methylpyridin-4-yl)-6-(4-fluorophenyl)pyrimidin-4-yl)oxy)ethyl)-N-methylpyridazin-3-amine] |  |  |  |  | 2.7 nM and 3.2 nM | 98 nM
23 | CNC(=O)OCCOc1nc(N)nc(-c2ccc(F)cc2)c1-c1cc(C)nc(C(F)F)c1 [Example 143, 2-((2-amino-5-(2-(difluoromethyl)-6-methylpyridin-4-yl)-6-(4-fluorophenyl)pyrimidin-4-yl)oxy)ethyl methylcarbamate] |  |  |  | 8.1 nM | 11.7 nM | 
24 | Cc1cc(-c2c(OCc3ncc(C#N)n3C(C)C)nc(N)nc2-c2ccc(F)cc2)cc(C(F)F)n1 [Example 191, 2-(((2-amino-5-(2-(difluoromethyl)-6-methylpyridin-4-yl)-6-(4-fluorophenyl)pyrimidin-4-yl)oxy)methyl)-1-isopropyl-1H-imidazole-5-carbonitrile] |  |  |  | 12 nM | 39 nM | 
25 | CCOC(=O)NCc1nc(N)nc(-c2ccccc2)c1-c1cc(C)nc(C(F)(F)F)c1 [Example 63, Ethyl((2-amino-5-(2-methyl-6-(trifluoromethyl)pyridin-4-yl)-6-phenylpyrimidin-4-yl)methyl)carbamate] |  |  |  | 8.3 nM | 37 nM | 
26 | Cc1cc(-c2c(OCCOc3ccnc(N(C)CCO)c3)nc(N)nc2-c2ccc(F)cc2)cc(C(F)F)n1 [Example 212, 2-((4-(2-((2-amino-5-(2-(difluoromethyl)-6-methylpyridin-4-yl)-6-(4-fluorophenyl)pyrimidin-4-yl)oxy)ethoxy)pyridin-2-yl)(methyl)amino)ethan-1-ol] | 62 nM |  | 174 nM |  |  | 
27 | Cc1cc(-c2c(O)nc(N)nc2-c2ccc(F)cc2)cc(C(F)F)n1 [Example 206, 2-amino-5-(2-(difluoromethyl)-6-methylpyridin-4-yl)-6-(4-fluorophenyl)pyrimidin-4-ol] | 10 nM | 4660 nM | 9.2 nM |  |  | 
28 | Cc1cc(-c2c(OCc3cccnn3)nc(N)nc2-c2ccc(F)cc2)cc(C(F)F)n1 [Example 223, 5-(2-(difluoromethyl)-6-methylpyridin-4-yl)-4-(4-fluorophenyl)-6-(pyridazin-3-ylmethoxy)pyrimidin-2-amine] |  | 788 nM | 4.1 nM |  |  | 
